Data reported in ChEMBL document CHEMBL5325426, “Structure-based discovery of potent USP28 inhibitors derived from Vismodegib” (Eur J Med Chem, 2023).

How the values were obtained:
[1] = target: T1, Ubiquitin carboxyl-terminal hydrolase 28 (Homo sapiens, UniProt Q96RU2); assay: Inhibition of USP28 (149 to 703 residues) (unknown origin) expressed in Escherichia coli BL21 (DE3) using Ub-AMC as substrate by fluorescence based analysis
T1 sequence (Q96RU2 whole entry): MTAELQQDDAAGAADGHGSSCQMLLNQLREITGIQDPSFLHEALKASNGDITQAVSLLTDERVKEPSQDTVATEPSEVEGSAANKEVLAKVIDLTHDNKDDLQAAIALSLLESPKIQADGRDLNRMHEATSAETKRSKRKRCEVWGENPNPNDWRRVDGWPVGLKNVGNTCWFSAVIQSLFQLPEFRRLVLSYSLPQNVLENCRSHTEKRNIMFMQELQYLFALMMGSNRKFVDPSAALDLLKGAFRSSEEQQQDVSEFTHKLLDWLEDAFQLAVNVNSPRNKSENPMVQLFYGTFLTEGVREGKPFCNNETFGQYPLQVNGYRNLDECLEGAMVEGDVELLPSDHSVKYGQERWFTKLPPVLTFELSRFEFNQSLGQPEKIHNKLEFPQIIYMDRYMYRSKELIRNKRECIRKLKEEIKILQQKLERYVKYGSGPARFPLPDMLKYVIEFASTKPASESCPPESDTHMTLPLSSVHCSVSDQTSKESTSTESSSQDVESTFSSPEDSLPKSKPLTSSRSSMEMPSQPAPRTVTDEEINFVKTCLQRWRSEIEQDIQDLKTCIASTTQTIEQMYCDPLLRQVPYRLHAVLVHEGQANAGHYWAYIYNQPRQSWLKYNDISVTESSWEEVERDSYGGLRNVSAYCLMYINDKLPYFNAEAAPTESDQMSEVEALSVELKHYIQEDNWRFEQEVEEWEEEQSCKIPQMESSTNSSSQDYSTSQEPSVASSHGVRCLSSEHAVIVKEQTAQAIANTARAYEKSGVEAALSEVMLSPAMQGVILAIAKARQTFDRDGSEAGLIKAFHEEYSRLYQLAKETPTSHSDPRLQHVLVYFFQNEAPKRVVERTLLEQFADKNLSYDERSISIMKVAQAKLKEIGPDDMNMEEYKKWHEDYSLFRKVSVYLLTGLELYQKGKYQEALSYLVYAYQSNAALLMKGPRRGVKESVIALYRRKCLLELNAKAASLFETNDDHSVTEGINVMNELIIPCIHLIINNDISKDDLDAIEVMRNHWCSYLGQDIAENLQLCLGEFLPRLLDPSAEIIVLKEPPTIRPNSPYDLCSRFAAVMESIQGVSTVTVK

HCT-116 = assay: Antiproliferative activity against human HCT-116 cells assessed as cell growth inhibition incubated for 3 days by SRB assay; type: functional, cell-based; details: HCT-116, 72 h
Calu-1 = assay: Antiproliferative activity against human Calu-1 cells assessed as cell growth inhibition incubated for 3 days by SRB assay; type: functional, cell-based; details: Calu-1, 72 h
NCI-H226 = assay: Antiproliferative activity against human NCI-H226 cells assessed as cell growth inhibition incubated for 3 days by SRB assay; type: functional, cell-based; details: NCI-H226, 72 h
LS174T = assay: Antiproliferative activity against human LS174T cells assessed as cell growth inhibition incubated for 3 days by SRB assay; type: functional, cell-based; details: 72 h

Row | Compound | IC50 [1] [nM] | also measured
1 | CS(=O)(=O)c1ccc(C(=O)Nc2cc(Cl)cc(-c3ccc(CN)cc3)c2)c(Cl)c1 | 1130 | 
2 | CS(=O)(=O)c1ccc(C(=O)Nc2ccc(Cl)c(-c3ccc(N4CCNCC4)cc3)c2)c(Cl)c1 | 4240 | 
3 | CS(=O)(=O)c1ccc(C(=O)Nc2ccc(Cl)c(-c3cccc(N)c3)c2)c(Cl)c1 | 11000 | 
4 | CS(=O)(=O)c1ccc(C(=O)Nc2ccc(Cl)c(-c3ccccc3N)c2)c(Cl)c1 | 8580 | 
5 | CS(=O)(=O)c1ccc(C(=O)Nc2ccc(Cl)c(-c3ccc(CN)cn3)c2)c(Cl)c1 | 2130 | 
6 | COc1ccc(-c2cc(NC(=O)c3ccc(S(C)(=O)=O)cc3Cl)ccc2Cl)cc1 | 2940 | 
7 | CN(C)c1ccc(-c2cc(NC(=O)c3ccc(S(C)(=O)=O)cc3Cl)ccc2Cl)cc1 | 2820 | 
8 | CS(=O)(=O)c1ccc(C(=O)Nc2ccc(Cl)c(-c3ccc(CN)cc3)c2)c(Cl)c1 | 360 | 
9 | Cc1ccc2c(N)c(C(=O)N[C@H]3CCc4cc(N5CC6CCC(C5)N6)ccc4C3)sc2n1 | 110 | IC50 (HCT-116): 190 nM; IC50 (Calu-1): 320 nM; IC50 (NCI-H226): 150 nM; IC50 (LS174T): 70 nM
10 | CS(=O)(=O)c1ccc(C(=O)Nc2ccc(Cl)c(-c3ccc(N)cc3)c2)c(Cl)c1 | 5680 | 
11 | CS(=O)(=O)c1ccc(C(=O)Nc2ccc(Cl)c(-c3cccc(CN)c3)c2)c(Cl)c1 | 150 | 
